Assay results published in patent US20160029683A1, “LOW CALORIE INFANT FORMULA CONTAINING BETA-HYDROXY-BETA-METHYLBUTYRIC ACID” (ABBOTT LABORATORIES, priority 2013, published 2016).
Entries after “also recorded” stand apart in the source; their conditions may differ.

Assays:
[1] = test system: protein synthesis in longissimus dorsi, gastrocnemius, soleus, diaphragm, duodenum and brain; assay: Comparison of protein synthesis rates after infusion of HMB or leucine; assay type: in vivo, neonatal pigs; settings: HMB 20, 100 or 400 μmol kg^−1 h^−1 vs leucine 400 μmol·kg^−1·hour^−1
Method: (§1) Overnight fasted neonatal pigs (5-7 days old) were infused with HMB with 0, 20, 100, or 400 μmol·kg^−1·hr^−1 HMB. Blood plasma concentrations of the following circulating substrates were measured. HMB was measured using gas chromatography per the method set forth in: Nissen, Steven (1990). Analysis of β-Hydroxy-β-methyl Butyrate in Plasma by Gas […] Chromatography and Mass Spectrometry Analytical Biochemistry 188, 17-19.
(§2) At the end of the infusion, the piglets were sacrificed and the fractional protein synthesis rates were measured by measuring ^3H incorporation into protein fractions after a flooding dose of L[4-^3H]phenylalanine using the method set forth in Garlick P. J. (1980). A rapid and convenient technique for measuring the rate of protein synthesis in tissues by injection of [3H]Phenylalanine Biochem J 192:719-723. Activation of translation initiation was measured in the stomach, duodenum, jejunum, colon, pancreas, kidney, brain and skin. The abundance of intracellular proteins involved in signaling of protein synthesis and in processes related to protein degradation was measured in tissue homogenates by immunoblotting using commercially available antibodies.

MURF1 = assay: Expression of MURF1 in muscles; assay type: in vivo, neonatal pigs
Method: as §1, §2
MURF1 is a muscle-specific ubiquitin ligase.

eEF2 = assay: Phosphorylation of eEF2 in muscles; assay type: in vivo, neonatal pigs
Method: as §1, §2
The formation of phosphorylation of eEF2 regulates […].

[2] = test system: markers of protein degradation; assay: Markers of protein degradation (overall analysis); assay type: in vivo, neonatal pigs; settings: overall analysis of the piglet data
Method: as §1, §2

amino acid transporters = assay: Level of amino acid transporters; assay type: in vivo, neonatal pigs; settings: overall analysis of the piglet data
Method: as §2

mTORC1 = mTORC1 signaling to translation (overall analysis); assay type: in vivo, neonatal pigs; settings: overall analysis of the piglet data
Method: as §1, §2

4EBP1 = assay: Phosphorylation of 4EBP1 in muscles (immunoblotting); assay type: in vivo, neonatal pigs
Method: as §1, §2
The phosphorylation of 4EBP1 is an indicator of mTORC1 signaling to translation.

[3] = test system: protein degradation in the muscles of adults; settings: literature (Smith 2004, 2005); cited from earlier work
[4] = test system: protein synthesis in the lung; assay: Fractional rate of protein synthesis in the lung of HMB-infused piglets; assay type: in vivo, neonatal pigs; settings: infusion rate of 20 μmol·kg^−1·hour^−1 HMB for one hour
Method: as §1, §2

Atrogin-1 = assay: Expression of Atrogin-1 in muscles; assay type: in vivo, neonatal pigs
Method: as §1, §2
Atrogin-1 is a muscle-specific ubiquitin ligase.

S6K1 = assay: Phosphorylation of S6K1 in muscles (immunoblotting); assay type: in vivo, neonatal pigs
Method: as §1, §2
The phosphorylation of S6K1 is an indicator of mTORC1 signaling to translation.

[5] = test system: protein synthesis in skeletal muscles; assay: Fractional rate of protein synthesis in skeletal muscles of HMB-infused piglets; assay type: in vivo, neonatal pigs
Method: as §1, §2

elF2α = assay: Phosphorylation of elF2α in muscles; assay type: in vivo, neonatal pigs
Method: as §1, §2
The formation of phosphorylation of elF2α regulates tRNA-ribosome binding.

[6] = Blood plasma concentration of HMB in piglets infused with HMB; assay type: in vivo, neonatal pigs; settings: pig, intravenous
Method: as §1

[7] = test system: protein synthesis in the spleen; assay: Fractional rate of protein synthesis in the spleen of HMB-infused piglets; assay type: in vivo, neonatal pigs; settings: infusion rate of 20 μmol·kg^−1·hour^−1 HMB for one hour
Method: as §1, §2

LC3-II/LC3-I = assay: Ratio of LC3-II/LC3-I in muscles; assay type: in vivo, neonatal pigs
Method: as §1, §2
The ratio of LC3-II/LC3-I is an indicator of autophagy/lysosomal protein degradation.

elF4E·elF4G complex = assay: Formation of the active elF4E·elF4G complex in muscles; assay type: in vivo, neonatal pigs
[8] = 20 μmol·kg^−1·hour^−1 HMB for one hour
[9] = 100 μmol·kg^−1·hour^−1 HMB for one hour
[10] = 20 μmol·kg^−1·hour^−1 HMB for one hour, diaphragm
[11] = 20 μmol·kg^−1·hour^−1 HMB for one hour, longissimus dorsi, gastrocnemius and soleus
[12] = 100 μmol·kg^−1·hour^−1 HMB for one hour, diaphragm
[13] = 100 μmol·kg^−1·hour^−1 HMB for one hour, longissimus dorsi, gastrocnemius and soleus

CC(C)(O)CC(=O)O [HMB, beta-hydroxy-beta-methylbutyric acid]
effectiveness in increasing protein synthesis compared with leucine [1]: equal to or more effective; also recorded: as effective as leucine
expression of MURF1 (MURF1; [8]): did not affect
expression of MURF1 (MURF1; [9]): did not affect
phosphorylation of eEF2 (eEF2; [8]): did not affect
phosphorylation of eEF2 (eEF2; [9]): did not affect
markers of protein degradation [2]: did not affect
level of amino acid transporters (amino acid transporters): did not affect
activation of protein synthesis via mTORC1 (mTORC1): activated protein synthesis by inducing mTORC1
phosphorylation of 4EBP1 (4EBP1; [10]): increased
phosphorylation of 4EBP1 (4EBP1; [11]): increased
phosphorylation of 4EBP1 (4EBP1; [12]): not
phosphorylation of 4EBP1 (4EBP1; [13]): increased
protein degradation in the muscles of adults [3]: attenuates protein degradation
protein synthesis in the lung [4]: increase
expression of Atrogin-1 (Atrogin-1; [8]): did not affect
expression of Atrogin-1 (Atrogin-1; [9]): did not affect
phosphorylation of S6K1 (S6K1; [10]): increased
phosphorylation of S6K1 (S6K1; [11]): increased
phosphorylation of S6K1 (S6K1; [13]): increased
fractional rates of protein synthesis in the skeletal muscles ([5]; 20 μmol·kg^−1·hour^−1 HMB, longissimus dorsi, gastrocnemius, soleus and diaphragm, P<0.05): increased
protein synthesis in the gastrocnemius, soleus and diaphragm muscles ([5]; 100 μmol·kg^−1·hour^−1 HMB): not significantly
protein synthesis in the longissimus dorsi muscle ([5]; 100 μmol·kg^−1·hour^−1 HMB, P<0.05): increased
protein synthesis in the skeletal muscles ([5]; 400 μmol·kg^−1·hour^−1 HMB): no significant effect
impact on protein synthesis in 4 muscles (fast twitch, slow twitch, voluntary and involuntary) ([5]; highest dose, 400 μmol kg^−1 h^−1, compared with other doses): least impact
impact on protein synthesis in 4 muscles (fast twitch, slow twitch, voluntary and involuntary) ([5]; lowest dose of HMB 20 μmol kg^−1 h^−1, compared with other doses): greatest impact
phosphorylation of elF2α (elF2α; [8]): did not affect
phosphorylation of elF2α (elF2α; [9]): did not affect
concentration at 1 h ([6]; piglets infused with 20 μmol·kg^−1·hr^−1 HMB): 90 µM
concentration at 1 h ([6]; piglets infused with 100 μmol·kg^−1·hr^−1 HMB): 316 µM
concentration at 1 h ([6]; piglets infused with 400 μmol·kg^−1·hr^−1 HMB): 1400 µM
protein synthesis in the spleen [7]: increase
ratio of LC3-II/LC3-I (LC3-II/LC3-I; [8]): did not affect
ratio of LC3-II/LC3-I (LC3-II/LC3-I; [9]): did not affect
formation of active eIF4E·eIF4G complex (elF4E·elF4G complex; [10]): increased
formation of active eIF4E·eIF4G complex (elF4E·elF4G complex; [11]): increased
formation of active eIF4E·eIF4G complex (elF4E·elF4G complex; [12]): not
formation of active eIF4E·eIF4G complex (elF4E·elF4G complex; [13]): increased
